From ChEMBL document CHEMBL3734667 (Bioorg Med Chem, 2015)
The source made the active and inactive calls. The calls are words filed in the database; no cut-off is given here.

Legend:
[1] = Cytotoxicity against human MT4 cells assessed as cell viability after 96 hrs by MTT assay; format: cell-based
[2] = Cytotoxicity against MDBK cells assessed as cell viability after 48 to 96 hrs by MTT assay; format: cell-based, Bos taurus; settings: cattle
[3] = Cytotoxicity against BHK cells assessed as cell viability after 48 to 96 hrs by MTT assay; format: cell-based, Mesocricetus auratus; settings: hamster
[4] = Cytotoxicity against african green monkey Vero 76 cells assessed as cell viability after 48 to 96 hrs by crystal violet staining method; format: cell-based; settings: chlorocebus sabaeus
[5] = tested on: Bovine viral diarrhea virus 1; assay: Antiviral activity against BVDV infected in MDBK cells assessed as inhibition of virus-induced cytopathogenicity after 3 to 4 days by MTT assay; format: functional, organism-based; settings: Bovine viral diarrhea virus isolates and strains
Yellow fever virus = assay: Antiviral activity against YFV infected in BHK-21 cells assessed as inhibition of virus-induced cytopathogenicity after 3 to 4 days by MTT assay; format: functional, organism-based
Coxsackievirus B5 = assay: Antiviral activity against human CVB5 infected in african green monkey Vero76 cells assessed as inhibition of virus-induced cytopathogenicity after 3 days by plaque reduction assay; format: functional, organism-based; settings: Enterovirus B, Vero 76, 72 h
Human orthopneumovirus = assay: Antiviral activity against human RSV infected in african green monkey Vero76 cells assessed as inhibition of virus-induced cytopathogenicity after 5 days by plaque reduction assay; format: functional, organism-based; settings: human respiratory syncytial virus, Vero 76, 120 h
Poliovirus 1 = assay: Antiviral activity against Human poliovirus 1 Sabin infected in african green monkey Vero76 cells assessed as inhibition of virus-induced cytopathogenicity by plaque reduction assay; format: functional, organism-based; settings: Enterovirus C, Vero 76
[6] = Selectivity index, ratio of CC50 for MDBK cells to EC50 for BVDV; parameters: species or system Bovine viral diarrhea virus 1
[7] = Selectivity index, ratio of CC50 for african green monkey Vero76 cells to EC50 for human RSV; parameters: species or system human respiratory syncytial virus, Vero 76
[8] = tested on: Human immunodeficiency virus 1; assay: Antiviral activity against HIV-1 infected in MT4 cells assessed as inhibition of virus-induced cytopathogenicity after 4 days by MTT assay; format: functional, organism-based; settings: Human immunodeficiency virus 1, MT4, 96 h
[9] = target: T1, Peroxisome proliferator-activated receptor alpha (Homo sapiens) (UniProt Q07869); assay: Agonist activity at human PPAR alpha in human HepG2 cells after 20 hrs by luciferase reporter assay; format: cell-based
T1 sequence (whole entry): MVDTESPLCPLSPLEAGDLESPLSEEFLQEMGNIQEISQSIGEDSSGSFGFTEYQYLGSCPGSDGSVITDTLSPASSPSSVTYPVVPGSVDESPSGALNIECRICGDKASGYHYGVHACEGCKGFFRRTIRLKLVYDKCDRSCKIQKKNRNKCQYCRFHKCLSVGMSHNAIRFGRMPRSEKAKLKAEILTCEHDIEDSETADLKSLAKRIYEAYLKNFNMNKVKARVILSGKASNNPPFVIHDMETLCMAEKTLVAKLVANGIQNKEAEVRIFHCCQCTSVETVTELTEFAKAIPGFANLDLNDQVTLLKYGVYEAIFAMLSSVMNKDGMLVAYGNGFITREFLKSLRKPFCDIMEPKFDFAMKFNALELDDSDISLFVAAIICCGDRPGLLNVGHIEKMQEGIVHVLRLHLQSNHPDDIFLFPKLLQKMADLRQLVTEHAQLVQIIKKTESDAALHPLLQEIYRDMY

[10] = target: T2, Peroxisome proliferator-activated receptor gamma (Homo sapiens) (UniProt P37231); assay: Agonist activity at human PPAR gamma in human HepG2 cells after 20 hrs by luciferase reporter assay; format: cell-based
T2 sequence (whole entry): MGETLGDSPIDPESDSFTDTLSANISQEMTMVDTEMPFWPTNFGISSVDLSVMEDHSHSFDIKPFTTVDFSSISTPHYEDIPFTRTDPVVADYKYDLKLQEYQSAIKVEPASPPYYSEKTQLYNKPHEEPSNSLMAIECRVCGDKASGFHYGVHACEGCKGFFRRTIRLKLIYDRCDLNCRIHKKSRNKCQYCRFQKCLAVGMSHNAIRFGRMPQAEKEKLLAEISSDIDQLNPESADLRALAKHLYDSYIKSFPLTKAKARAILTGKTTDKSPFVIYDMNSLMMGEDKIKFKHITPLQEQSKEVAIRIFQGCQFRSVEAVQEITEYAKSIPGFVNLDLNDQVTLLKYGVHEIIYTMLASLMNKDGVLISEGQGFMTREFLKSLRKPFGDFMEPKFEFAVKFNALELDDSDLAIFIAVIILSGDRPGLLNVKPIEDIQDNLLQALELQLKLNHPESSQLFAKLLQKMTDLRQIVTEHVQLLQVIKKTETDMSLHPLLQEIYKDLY

[11] = tested on: Vesicular stomatitis virus; assay: Antiviral activity against VSV; format: functional, organism-based
Vaccinia virus = assay: Antiviral activity against Vaccinia virus; format: functional, organism-based; settings: Orthopoxvirus vaccinia
[12] = tested on: Mammalian orthoreovirus 1; assay: Antiviral activity against Reo-1 virus infected in BHK-21 cells assessed as inhibition of virus-induced cytopathogenicity after 3 to 4 days by MTT assay; format: functional, cell-based; settings: Mammalian orthoreovirus 1, BHK-21
[13] = Selectivity index, ratio of CC50 for african green monkey Vero76 cells to EC50 for human CVB5; parameters: species or system Coxsackievirus B5, Vero 76
[14] = Selectivity index, ratio of CC50 for african green monkey Vero76 cells to EC50 for human Sb-1; parameters: species or system Human poliovirus 1 strain Sabin, Vero 76
Human alphaherpesvirus 1 = assay: Antiviral activity against HSV1; format: functional, organism-based
[15] = Selectivity index, ratio of CC50 for BHK-21 cells to EC50 for YFV; parameters: species or system Yellow fever virus

CC(C)(COc1ccc(-n2nc3ccccc3n2)cc1)C(=O)O
CC50 at 96 h [1]: > 100 µM
CC50 [2]: > 100 µM
CC50 [3]: > 100 µM
CC50 [4]: 70 µM
EC50 [5]: 44 µM
EC50 (Yellow fever virus): > 100 µM
EC50 (Coxsackievirus B5): > 100 µM
EC50 (Human orthopneumovirus): 25 µM
EC50 (Poliovirus 1): > 100 µM
Ratio CC50/EC50 [6]: >2.27
Ratio CC50/EC50 [7]: 2.8
EC50 [8]: > 100 µM
Activity [9]: inactive
Activity [10]: inactive
EC50 [11]: > 100 µM
EC50 (Vaccinia virus): > 100 µM

CC(=O)Nc1ccc(-n2nc3ccccc3n2)cc1
CC50 at 96 h [1]: 66 µM
CC50 [2]: 100 µM
CC50 [3]: > 100 µM
CC50 [4]: > 100 µM
EC50 [5]: 70 µM
EC50 (Yellow fever virus): > 100 µM
EC50 [12]: 83 µM
EC50 (Coxsackievirus B5): 40 µM
EC50 (Human orthopneumovirus): > 100 µM
EC50 (Poliovirus 1): > 100 µM
Ratio CC50/EC50 [6]: 1.43
Ratio CC50/EC50 [13]: >2.5
EC50 [8]: > 100 µM
EC50 [11]: > 100 µM
EC50 (Vaccinia virus): > 100 µM

COc1ccc(-n2nc3ccc(C(F)(F)F)cc3n2)cc1
CC50 at 96 h [1]: > 100 µM
CC50 [2]: > 100 µM
CC50 [3]: > 100 µM
CC50 [4]: > 100 µM
EC50 [5]: > 100 µM
EC50 (Yellow fever virus): > 100 µM
EC50 [12]: > 100 µM
EC50 (Coxsackievirus B5): 80 µM
EC50 (Human orthopneumovirus): > 100 µM
EC50 (Poliovirus 1): 40 µM
Ratio CC50/EC50 [13]: >1.25
Ratio CC50/EC50 [14]: >2.5
EC50 [8]: > 100 µM
EC50 (Human alphaherpesvirus 1): > 100 µM
EC50 [11]: > 100 µM
EC50 (Vaccinia virus): > 100 µM

Cc1cc(CCCOc2c(C)cc(-c3noc(C(F)(F)F)n3)cc2C)on1 [PLECONARIL]
CC50 [4]: 70 µM
EC50 (Coxsackievirus B5): 0.008 µM
EC50 (Poliovirus 1): 2 µM
Ratio CC50/EC50 [15]: 8750
Ratio CC50/EC50 [14]: 35

O=c1cnn([C@@H]2O[C@H](CO)[C@@H](O)[C@H]2O)c(=O)[nH]1 [6-AZAURIDINE]
CC50 [2]: > 100 µM
CC50 [3]: > 100 µM
EC50 [5]: > 100 µM
EC50 [12]: > 100 µM
EC50 (Coxsackievirus B5): > 100 µM
EC50 (Human orthopneumovirus): 1.2 µM
EC50 (Poliovirus 1): > 100 µM
Ratio CC50/EC50 [15]: >3.8
Ratio CC50/EC50 [7]: 16.7
EC50 (Human alphaherpesvirus 1): > 100 µM
EC50 [11]: > 100 µM
EC50 (Vaccinia virus): 11 µM

Oc1ccc(-n2nc3ccccc3n2)cc1
CC50 at 96 h [1]: > 100 µM
CC50 [2]: ≥ 100 µM
CC50 [3]: 83 µM
CC50 [4]: 90 µM
EC50 [5]: 17 µM
EC50 (Yellow fever virus): ≥ 83 µM
EC50 (Coxsackievirus B5): > 100 µM
EC50 (Poliovirus 1): 7 µM
Ratio CC50/EC50 [6]: >5.88
Ratio CC50/EC50 [14]: 12.86
EC50 [8]: > 100 µM
EC50 [11]: > 100 µM
EC50 (Vaccinia virus): > 100 µM

FC(F)(F)c1ccc2c(c1)nnn2C[C@@H]1CCCN2CCCC[C@H]12
CC50 at 96 h [1]: > 100 µM
CC50 [2]: > 100 µM
CC50 [3]: > 100 µM
CC50 [4]: > 100 µM
EC50 [5]: > 100 µM
EC50 (Yellow fever virus): 27 µM
EC50 [12]: > 100 µM
EC50 (Coxsackievirus B5): 38 µM
EC50 (Human orthopneumovirus): 90 µM
EC50 (Poliovirus 1): > 100 µM
Ratio CC50/EC50 [15]: >3.7
Ratio CC50/EC50 [13]: >2.63
Ratio CC50/EC50 [7]: >1.11
EC50 [8]: > 100 µM
EC50 (Human alphaherpesvirus 1): > 100 µM
EC50 [11]: > 100 µM
EC50 (Vaccinia virus): > 100 µM

C#C[C@@]1(O)[C@H](O)[C@@H](CO)O[C@H]1n1ccc(N)nc1=O [2'-ETHYNYL-D-CYTIDINE]
CC50 at 96 h [1]: > 100 µM
CC50 [2]: > 100 µM
CC50 [3]: > 100 µM
CC50 [4]: > 100 µM
EC50 (Yellow fever virus): > 100 µM
EC50 [12]: > 100 µM
EC50 (Coxsackievirus B5): 30 µM
EC50 (Human orthopneumovirus): > 100 µM
EC50 (Poliovirus 1): 25 µM
Ratio CC50/EC50 [6]: >2.6
Ratio CC50/EC50 [13]: >3.3
Ratio CC50/EC50 [14]: >4
EC50 (Human alphaherpesvirus 1): > 100 µM
EC50 [11]: > 100 µM
EC50 (Vaccinia virus): > 100 µM

Clc1cc2nnn(C3CCCCO3)c2cc1Cl (stereo unspecified)
CC50 at 96 h [1]: > 100 µM
CC50 [2]: > 100 µM
CC50 [3]: > 100 µM
CC50 [4]: ≥ 100 µM
EC50 [5]: > 100 µM
EC50 (Yellow fever virus): > 100 µM
EC50 [12]: > 100 µM
EC50 (Poliovirus 1): 60 µM
Ratio CC50/EC50 [14]: 1.67
EC50 [8]: > 100 µM
EC50 (Human alphaherpesvirus 1): > 100 µM
EC50 [11]: > 100 µM

Nc1ccc(-n2nc3ccccc3n2)cc1
CC50 at 96 h [1]: ≥ 100 µM
CC50 [2]: 100 µM
CC50 [3]: 100 µM
CC50 [4]: > 100 µM
EC50 [5]: 35 µM
EC50 (Yellow fever virus): 75 µM
EC50 [12]: 90 µM
EC50 (Coxsackievirus B5): > 100 µM
EC50 (Human orthopneumovirus): > 100 µM
EC50 (Poliovirus 1): > 100 µM
Ratio CC50/EC50 [6]: 2.86
Ratio CC50/EC50 [15]: 1.33
EC50 [8]: > 100 µM
EC50 [11]: > 100 µM
EC50 (Vaccinia virus): > 100 µM

CC(C)(COc1ccc(-n2nc3ccc(Cl)cc3n2)cc1)C(=O)O
CC50 at 96 h [1]: 94 µM
CC50 [2]: 52 µM
CC50 [3]: 47 µM
CC50 [4]: 40 µM
EC50 [5]: 21 µM
EC50 (Yellow fever virus): > 100 µM
EC50 (Coxsackievirus B5): 1.7 µM
EC50 (Human orthopneumovirus): 12 µM
EC50 (Poliovirus 1): > 100 µM
Ratio CC50/EC50 [6]: 2.47
Ratio CC50/EC50 [13]: 23.53
Ratio CC50/EC50 [7]: 3.33
EC50 [8]: > 100 µM
EC50 [11]: > 100 µM
EC50 (Vaccinia virus): > 100 µM
